Test results as given in patent US9918968B2, “Rapamycin analogs targeting proteasome function in the treatment of cancer” (THE BOARD OF REGENTS OF THE UNIVERSITY OF TEXAS SYSTEM, priority 2013, dated 2018).
Where two headings read alike, the source gives them in different places.

Legend:
[1] = test system: A2780 ovarian cancer cells; details: read-out: IC50, proliferation; cited from earlier work
[2] = target: chymotrypsin-like proteasome activity (Homo sapiens, UniProt P28074); details: read-out: IC50, chymotrypsin-like proteasome inhibition; cited from earlier work
H460 = details: read-out: IC50, proliferation; cited from earlier work
PC3 prostate cancer = details: read-out: IC50, proliferation; cited from earlier work
[3] = test system: MM xenograft tumors (LAGκ-1A); details: 14 d, cited from earlier work
[4] = test system: RPMI8226 multiple myeloma cancer; details: read-out: IC50, proliferation; cited from earlier work
LoVo colon cancer = details: read-out: IC50, proliferation; cited from earlier work
[5] = test system: HS-Sultan anaplastic non-Hodgkin lymphoma; details: read-out: IC50, proliferation; cited from earlier work
transplanted tumor = details: cited from earlier work; for proteasome inhibition in brain tissue: any time point
[6] = test system: HeLa.S3 cervical carcinoma cells; test: Live/dead cell count, HeLa.S3 cells; type: cell-based, human; details: 48 hrs
Description: (§1) Culture Collection; ATCC) were cultured according to ATCC specifications: HeLa.S3 cervical adenocarcinoma, MCF7 breast adenocarcinoma, MDA-MB-231 breast adenocarcinoma (representing triple negative breast cancer), and RPMI 8226 myeloma. The cells were grown in 24 or 12-well cell culture plates. When the cells reached about 60% confluency (surface-growing HeLa.S3,MCF7 and MDA-MB-231) or a density of about 7×10^5 (suspension-growing RPMI 8226), the inhibitors dissolved in DMSO or the solvent (DMSO) diluted in respective culture medium were added and the cells were further cultured for additional 48 hours. […] The final concentration of the solvent was 1% (vol/vol). The number of live and dead cells after the treatment was approximated with calcein AM and ethidium homodimer (LiveDead test, Invitrogen) according to manufacturer's protocol, or by a Trypan Blue exclusion assay. In short, the cells after the treatment were washed three times with PBS and overlaid (surface-growing) or mixed (suspension-growing) with 4 microM calcein AM and 2 microM ethidium homodimer in PBS. Fluorescence of calcein and DNA-bound ethidium homodimer was measured with Fluoroskan Ascent plate reader, at 485 nm (excitation)/538 nm (emission) and 530 nm/619 nm, respectively. The cell counts were approximated using standard curves of live and digitonin-killed cells prepared for each strain. Alternatively, after cell treatment the medium was removed, the surface growing cells were overlaid with Trypan Blue solution, and the colorless (live) and blue-colored (dead) cells were counted under the inverted microscope.

[7] = test system: MCF7 breast carcinoma cells; test: Live/dead cell count, MCF7 cells; type: cell-based, human; details: 100 nM bortezomib
Description: as §1, with “In short, the cells after the treatment were washed three times with PBS and overlaid (surface-growing) or mixed (suspension-growing) with 4 microM calcein AM and 2 microM ethidium homodimer in PBS.” left out, “The cell counts were approximated using standard curves of live and digitonin-killed cells prepared for each strain.” left out

[8] = test system: MDA-MB-231 (triple-negative breast cancer) cells; test: Viability/growth of MDA-MB-231 cells; type: cell-based, human; details: Homo sapiens, MDA-MB-231; 24 hours, drug alone; read-out: EC50 (concentration required to exclude 50% of cells)
Description: The cells were grown in 24 or 12-well cell culture plates. […] The final concentration of the solvent was 1% (vol/vol). The number of live and dead cells after the treatment was approximated with calcein AM and ethidium homodimer (LiveDead test, Invitrogen) according to manufacturer's protocol, or by a Trypan Blue exclusion assay. In short, the cells after the treatment were washed three times with PBS and overlaid (surface-growing) or mixed (suspension-growing) with 4 microM calcein AM and 2 microM ethidium homodimer in PBS. […] The cell counts were approximated using standard curves of live and digitonin-killed cells prepared for each strain. Alternatively, after cell treatment the medium was removed, the surface growing cells were overlaid with Trypan Blue solution, and the colorless (live) and blue-colored (dead) cells were counted under the inverted microscope.

RPMI 8226 myeloma cells = test: Live/dead cell count, RPMI 8226 myeloma cells; type: cell-based, human; details: 5 nM, 48 hrs
Description: as §1

[9] = test system: T1, human 20S proteasome, ChT-L peptidase; test: ChT-L peptidase activity of purified human 20S proteasome (Suc-LLVY-MCA); type: biochemical
T1 construct: purchased Enzo LifeSciences
Description: Human purified proteasome complexes were purchased from Enzo LifeSciences or Boston Biochemicals (19S complex). BODIPY-casein (Invitrogen/Molecular Probes) was used as a model protein substrate, with increasing fluorescence of BODIPY labeled peptide products of degradation monitored for up to 8 hours at 37° C. The peptidase activity of the enzyme was measured as arbitrary intensity units of the released fluorescent group 7-amino-4-methylcoumarin (AMC) from peptide substrates, as described. […] Proteasome substrates, rapamycin, its derivatives, and competing peptides were stocked in DMSO and diluted 100-fold in the reaction mixtures. The Rpt5 and PA200 C-terminal peptides were synthesized in the Departmental Peptide Synthesis Core using the standard SPPS chemistry. To activate the latent 20S proteasome, 0.005% (final concentration) of sodium dodecyl sulfate (SDS) was used. […] The fluorescence of products was monitored every 2 minutes with a Fluoroskan Ascent plate reader. Reaction rates were calculated from smoothed linear segment of kinetic curves using OriginPro 8.6 (OriginLabs, Northampton, Mass.). For the determination of an inhibition type, at least six distinct substrate concentrations and two inhibitor concentrations were used. The kinetic parameters of inhibition were analyzed in terms of the Michaelis-Menten formalism using the enzyme kinetic module of SigmaPlot v.12 (Systat Software, Inc, San Jose, Calif.) to perform the respective calculations. […]
The in vitro assay for testing the ChT-L peptidase activity of the purified human 20S proteasome was performed as described above.

## CC(C)C[C@H](NC(=O)[C@@H](NC(=O)c1cccc(-c2ccccc2)n1)[C@@H](C)O)B(O)O [Delanzomib]
[1]
  IC50: 13.7 nM
[2]
  IC50: 3.8 nM
H460
  IC50: 34.2 nM
PC3 prostate cancer
  IC50: 22.2 nM
[3]; twice weekly 3 mg/kg i.v.
  tumors smaller than control: approximately 8 times
[3]; twice weekly 10 mg/kg orally
  tumors smaller than control: ~12 times
[4]
  IC50: 5.6 nM
LoVo colon cancer
  IC50: 11.3 nM
[5]
  IC50: 8.2 nM
Transplanted tumor
  proteasome inhibition in brain tissue: No proteasome inhibition is detected
Transplanted tumor; caspase-3 and 7 activity in tumor, equiactive doses
  maximum apoptotic signal versus bortezomib: 2.5 fold

## CC(C)C[C@H](NC(=O)[C@H](Cc1ccccc1)NC(=O)c1cnccn1)B(O)O [bortezomib]
[6]; up to 100 nM bortezomib
  dead cells, of total cell count: up to 16%
[6]; up to 100 nM
  changes in cell proliferation: did not induce significant changes
[7]
  live cell count, of the control: about 53%
[8]
  EC50: 745 nM
RPMI 8226 myeloma cells
  dead cells: 18%
RPMI 8226 myeloma cells; 100% = live cells in DMSO control
  remaining live cells: 10%
[9]; 5 nM BZ alone
  remaining ChT-L activity: 83%
[9]; 50 nM bortezomib alone
  remaining ChT-L activity: 68%
Transplanted tumor
  proteasome inhibition in brain tissue: No proteasome inhibition is detected
Transplanted tumor; at MTD of 1.2 mg/kg intravenously
  incidence of CR (complete tumor regression): 50%
Transplanted tumor; intravenously
  maximally tolerated dose (MTD): 1.2 mg/kg
